# Results published in article PMC11224403, “Des-acyl ghrelin reduces alcohol intake and alcohol-induced reward in rodents” (Translational Psychiatry, 2024).
# Assays:
# [1] = tested on: male and female rats; assay: Intermittent-access alcohol drinking, acute DAG injection; format: in vivo, Rcc Han Wistar rats; conditions: for intake of alcohol, water, total fluid, food, alcohol preference, body weight: male and female rats
# Source text: (§1) Male and female Rcc Han Wistar rats (8–12 weeks old at arrival; Envigo, Horst, Netherlands) were used for the alcohol drinking and locomotor activity experiments as they drink alcohol to intoxicating levels. For in vivo microdialysis studies male Wistar rats (Charles River, Calco, Italy) were used as they display robust dopamine levels in NAc shell after alcohol injection. […] All rodents were allowed to habituate to the animal facility at least one week before they entered an experiment. During housing (20 °C with 50% humidity) the rodents had free access to water and standard chow (Teklad Rodent Diet; Envigo, Madison, WI, USA). These experiments were approved by the Ethics Committee for Animal Experiments (ethical numbers: 1457/18, 3276/18, 1556/18, 3348/20; Gothenburg, Sweden) and followed the ARRIVE guidelines. The sample sizes of each experiment were based on previous experience in which statistical significance has been detected. The person who conducted the experiments, and analyzed the collected data was aware of the treatment allocation. Only preset exclusion criteria were used when analyzing the data obtained in attempts to exclude confounding factors in analyzing data. In the alcohol drinking experiments leaking bottles and low alcohol consumption (<3.0 g/kg for males; <3.5 g/kg for females) were preset exclusion criteria. The preset exclusion criterion in the ex vivo HPLC-EC, ELISA, and recombinant cell line experiments was contamination of the sample. Misplaced probes, technical difficulties, and damages to the surgery area were preset exclusion criteria for the in vivo microdialysis experiment. Intra-cage male aggression was the preset exclusion criterion for the locomotor activity and CPP experiments. To minimize tentative confounding factors, the order of treatments was stratified, with treatments being mixed for each animal cage and for each apparatus used as well as balancing the alcohol intake between future treatment groups. Although each experiment only was performed once, they were separated over different laboratory days with equal data obtained between sessions.
# (§2) Alcohol (95%; Solveco AB, Stockholm, Sweden) was either diluted to a 20% solution using tap water (drinking experiment) or to a 15% (w/v) solution with 0.9% NaCl. Alcohol was in the behavioral and neurochemical tests injected (intraperitoneally, IP) 5 min before the test. A dose of 1.75 g/kg was used in male mice as it causes robust locomotor stimulation and induces a CPP [37–39], and 2 g/kg was used for rats as it elevates the dopamine levels in NAc shell. DAG (Tocrise Bioscience, Bristol, UK) was dissolved in 0.9% NaCl in doses (0.25–2 mg/kg) known to reduce food intake and DAG was injected IP).
# Individually housed rats had intermittent access to an alcohol (20%) bottle and a water bottle, three 24-h sessions per week, and only water bottles the remaining days. A reversed light/dark cycle was used, and the bottles were changed when the lights went out. First, the rats consumed alcohol for 10 weeks (baseline drinking), where the bottles and food were weighed daily and the body weight weekly. During treatments, the bottles and food were weighed at 4- and/or 24-h and the body weight was measured daily. In the first drinking experiment, the potential of DAG to reduce alcohol consumption was tested and therefore, vehicle or DAG (1 mg/kg) was acutely injected into male (n = 12) or female (n = 12) rats. The second drinking experiment was conducted to establish the effects of lower DAG doses on alcohol intake. Therefore, separate male (n = 18) or female (n = 18) rats, were acutely injected with lower DAG doses (0.5 or 0.25 mg/kg) or vehicle. The third alcohol drinking experiment evaluated the ability of repeated DAG injections to lower alcohol drinking. Therefore, additional male (n = 24) and female (n = 24) rats were injected with either vehicle or DAG (1 mg/kg) at three alcohol-drinking sessions. […]
# [2] = tested on: male mice; assay: Conditioned place preference (rCPP, mCPP); format: in vivo, NMRI mice
# Source text: as §1
# as §2, with “IP). […]” for “IP).”
# [3] = tested on: human transporter of dopamine (DAT); assay: Transporter inhibition in recombinant cell line (neurotransmitter transporter uptake assay), DAT; format: cell-based; conditions: 8.3 µM DAG; CHO-K1 cells, 3 h incubation, fluorescence dye
# [4] = tested on: NET; assay: Transporter inhibition in recombinant cell line, NET; format: cell-based, human; conditions: 8.3 µM DAG; recombinant cells, 3 h incubation, fluorescence dye
# [5] = tested on: SERT; assay: Transporter inhibition in recombinant cell line, SERT; format: cell-based, human; conditions: 8.3 µM DAG; recombinant cells, 3 h incubation, fluorescence dye
# [6] = tested on: 5HT2A receptor; assay: Aquoscreen receptor activity assay, 5HT2A; format: cell-based, human; conditions: 50 µM DAG in results (8.3 µM in methods); luminescence, triplicates
# [7] = tested on: µ-opioid receptor; format: cell-based, human; conditions: 50 µM DAG in results (8.3 µM in methods); luminescence, triplicates
# [8] = cited from earlier work
# Source text: Although DAG altered the neurotransmission of the VTA, the neuronal activi ... || Although DAG reduced alcohol consumption in rats of both sexes, some sex differences were evident. Specifically, after acute DAG treatment the decline in alcohol consumption was evident at the 24-h time point for males and the 4-h time point for females. Moreover, after repeated DAG treatment the decline was similar at each treatment session for males whereas it escalates over time in females.
# [9] = female rats, acute DAG 1.0 mg/kg IP, n = 5 vs vehicle n = 6, 4 h
# [10] = male rats, acute DAG 1.0 mg/kg IP, n = 5 vs vehicle n = 6, 4 h
# [11] = male rats, acute DAG 1.0 mg/kg IP, n = 5 vs vehicle n = 6, 24 h
substance,measurement,setting,value
"des-acyl ghrelin (GSSFLSPEHQRVQQRKESKKPPAKLQPR; Ghrelin-28 non-acylated; UniProt Q9UBU3 24-51, looked up) [DAG, non-octanoylated form of ghrelin; purchased from Tocris (printed Tocrise Bioscience), dissolved in 0.9% NaCl]",4-h alcohol intake,[1]; [9],decreased the 4-h alcohol intake (t9 = 2.05; P = 0.0351)
same,"preference for alcohol, 4-h",[1]; [9],reduced it at the I 4-h (t9 = 2.16; P = 0.0294)
same,4-h food intake,"[1]; female rats, acute DAG 1.0 mg/kg IP, n = 5 vs vehicle n = 6, 4 h (first statistic)","At neither time point, DAG affected the K, L food intake (t9 = 0.34; P = 0.7414"
same,24-h alcohol intake,"[1]; female rats, acute DAG 1.0 mg/kg IP, n = 5 vs vehicle n = 6, 24 h",did not alter the 24-h drinking (t9 = 0.22; P = 0.8331)
same,24-h food intake,"[1]; female rats, acute DAG 1.0 mg/kg IP, n = 5 vs vehicle n = 6, 24 h (second statistic)","At neither time point, DAG affected the K, L food intake (t9 = 0.34; P = 0.7414 and t9 = 1.12; P = 0.2909, respectively)"
same,"intake of alcohol, water, total fluid, food, alcohol preference, body weight","[1]; acute DAG 0.25 mg/kg IP, n = 6","did not alter the intake of alcohol, water, total fluid, food intake alcohol preference or body weight in male or female rats"
same,"intake of alcohol, water, total fluid, food, alcohol preference, body weight","[1]; acute DAG 0.5 mg/kg IP, n = 6 (males n = 5)","did not alter the intake of alcohol, water, total fluid, food intake alcohol preference or body weight in male or female rats"
same,4-h alcohol intake,[1]; [10],did not alter the A 4-h alcohol intake (t9 = 0.36; P = 0.7264)
same,4-h food intake,[1]; [10],did not affect the E 4-h food intake (t9 = 1.51; P = 0.1657)
same,"preference for alcohol, 4-h",[1]; [10],did not alter the C preference for alcohol at the 4-h time point (t9 = 1.84; P = 0.0983)
same,24-h alcohol intake,[1]; [11],reduced the alcohol intake at the 24-h time point (t9 = 2.35; P = 0.0432)
same,24-h food intake,[1]; [11],increased the 24-h feeding (t9 = 2.64; P = 0.0271)
same,"preference for alcohol, 24-h",[1]; [11],decreased it at 24 h (t9 = 3.00; P = 0.0149)
same,memory of alcohol reward (mCPP),[2]; DAG 1 mg/kg at post-conditioning,"did not reduce the memory of alcohol reward (mCPP, t14 = 1.36, P = 0.1955)"
same,reward of alcohol in conditioned place preference (rCPP),[2]; DAG 1 mg/kg during conditioning with alcohol,"attenuated the reward of alcohol in the conditioned place preference test (rCPP, t12 = 2.69, P = 0.0197)"
same,rCPP per se,"[2]; DAG 1 mg/kg, only vehicle control instead of alcohol","did not influence rCPP (t14 = 0.64, P = 0.5304) per se"
same,mCPP per se,"[2]; DAG 1 mg/kg, vehicle during conditioning","DAG did neither influence locomotor activity, rCPP, mCPP nor accumbal dopamine per se"
same,inhibition of DAT,[3],no inhibition
same,inhibition of NET,[4],no inhibition
same,inhibition of SERT,[5],no inhibition
same,activation of 5HT2A,[6],no activation
same,activation of µ-opioid receptor,[7],no activation
same,elimination pathway,"[8]; ref [63], [64]",renal clearance has been suggested to be a major pathway for the elimination of DAG
same,brain entry,"[8]; systemic DAG, ref [52]",enters the brain through non-saturable transmembrane diffusion
